Assay results reported in patent US9034793B2, “Use of ribose to enhance plant growth” (Bioenergy, Inc., priority 2002, dated 2015).

Tested on: bean seeds
Test: Plant growth and yield from bean seeds, daylight or darkness (Example 2)
Format: in vivo
Description: Three different treatments were explored on bean seeds to determine the effects of ribose (at two different doses) on plant growth and proliferation. [The three treatments include control (plain water), a 0.1332 M solution of ribose (5 g D-ribose dissolved in 250 ml water), and a 0.0666 M solution of ribose (5 g D-ribose dissolved in 500 ml water)]. The plants were kept under two different conditions, normal daylight and darkness. A total of six plants will be tested, with the conditions that each plant were tested at listed below. Treatments: [table] Each seed was planted under identical conditions (soil and pot size) and all at the same time. The environmental conditions (such as temperature and humidity), except for lighting, were kept constant for all the plants. Once potted, each seed received one to two tablespoons of treatment liquid (as mentioned above). A daily record was kept of the activity of each plant. Watering was done on every other day (or sooner if the soil was deemed too dry by the researcher), each again receiving one tablespoon of treatment liquid. Assessment of the effects of ribose fertilization was determined by measuring the time to the first appearance of a plant from the soil, the rate of growth, and leaf size. Table 3 represents the accumulated plant growth data from Example 2 and FIGS. 3 and 4 are graphic presentations of plant growth during light and dark conditions.

## O=C[C@H](O)[C@H](O)[C@H](O)CO [5/250, D-ribose]
Dark, Day 0 (17-Sep)
  Amount of Growth Between Measurements: 0
  Plant growth-height: 0
  Rate of Growth Between Measurements: 0
Dark, Day 3 (20-Sep)
  Amount of Growth Between Measurements: 0
  Plant growth-height: 0
  Rate of Growth Between Measurements: 0
Dark, Day 5 (22-Sep)
  Amount of Growth Between Measurements: 0
  Plant growth-height: 0
  Rate of Growth Between Measurements: 0
  Rate of Growth Overall Thru Date: 0
Dark, Day 7 (24-Sep)
  Amount of Growth Between Measurements: 4.4
  Plant growth-height: 4.4
  Rate of Growth Between Measurements: 2.20
  Rate of Growth Overall Thru Date: 0.63
Dark, Day 8 (25-Sep)
  Amount of Growth Between Measurements: 4.1
  Plant growth-height: 8.5
  Rate of Growth Between Measurements: 4.10
  Rate of Growth Overall Thru Date: 1.06
Dark, Day 9 (26-Sep)
  Amount of Growth Between Measurements: 4.7
  Plant growth-height: 13.2
  Rate of Growth Between Measurements: 4.70
  Rate of Growth Overall Thru Date: 1.47
Dark, Day 10 (27-Sep)
  Amount of Growth Between Measurements: 2.1
  Plant growth-height: 15.3
  Rate of Growth Between Measurements: 2.10
  Rate of Growth Overall Thru Date: 1.53
Dark, Day 11 (28-Sep)
  Amount of Growth Between Measurements: 2.3
  Plant growth-height: 17.6
  Rate of Growth Between Measurements: 2.30
  Rate of Growth Overall Thru Date: 1.60
Dark, Day 12 (29-Sep)
  Amount of Growth Between Measurements: 2
  Plant growth-height: 19.6
  Rate of Growth Between Measurements: 2.00
  Rate of Growth Overall Thru Date: 1.63
Dark, Day 13 (30-Sep)
  Amount of Growth Between Measurements: 1.5
  Plant growth-height: 21.1
  Rate of Growth Between Measurements: 1.50
  Rate of Growth Overall Thru Date: 1.62
Dark, Day 16 (3-Oct)
  Amount of Growth Between Measurements: 3.6
  Plant growth-height: 24.7
  Rate of Growth Between Measurements: 1.20
  Rate of Growth Overall Thru Date: 1.54
Light, Day 0 (17-Sep)
  Amount of Growth Between Measurements: 0
  Plant growth-height: 0
  Rate of Growth Between Measurements: 0
Light, Day 3 (20-Sep)
  Amount of Growth Between Measurements: 0
  Plant growth-height: 0
  Rate of Growth Between Measurements: 0
Light, Day 5 (22-Sep)
  Amount of Growth Between Measurements: 1.1
  Plant growth-height: 1.1
  Rate of Growth Between Measurements: 0.55
  Rate of Growth Overall Thru Date: 0.22
Light, Day 7 (24-Sep)
  Amount of Growth Between Measurements: 4.4
  Plant growth-height: 5.5
  Rate of Growth Between Measurements: 2.20
  Rate of Growth Overall Thru Date: 0.79
Light, Day 8 (25-Sep)
  Amount of Growth Between Measurements: 9.5
  Plant growth-height: 15
  Rate of Growth Between Measurements: 9.50
  Rate of Growth Overall Thru Date: 1.88
Light, Day 9 (26-Sep)
  Amount of Growth Between Measurements: 4.1
  Plant growth-height: 19.1
  Rate of Growth Between Measurements: 4.10
  Rate of Growth Overall Thru Date: 2.12
Light, Day 10 (27-Sep)
  Amount of Growth Between Measurements: 4
  Plant growth-height: 23.1
  Rate of Growth Between Measurements: 4.00
  Rate of Growth Overall Thru Date: 2.31
Light, Day 11 (28-Sep)
  Amount of Growth Between Measurements: 2.6
  Plant growth-height: 25.7
  Rate of Growth Between Measurements: 2.60
  Rate of Growth Overall Thru Date: 2.34
Light, Day 12 (29-Sep)
  Amount of Growth Between Measurements: 0.7
  Plant growth-height: 26.4
  Rate of Growth Between Measurements: 0.70
  Rate of Growth Overall Thru Date: 2.20
Light, Day 13 (30-Sep)
  Amount of Growth Between Measurements: 0.2
  Plant growth-height: 26.6
  Rate of Growth Between Measurements: 0.20
  Rate of Growth Overall Thru Date: 2.05
Light, Day 16 (3-Oct)
  Amount of Growth Between Measurements: 1.7
  Plant growth-height: 28.3
  Rate of Growth Between Measurements: 0.57
  Rate of Growth Overall Thru Date: 1.77
Light, Day 19 (6-Oct)
  Amount of Growth Between Measurements: −0.7
  Plant growth-height: 27.6
  Rate of Growth Between Measurements: −0.23
  Rate of Growth Overall Thru Date: 1.45
